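Where inhibition never reached the appropriate level, the endpoint shown equals the highest concentration tested. Otherwise, values were interpolated linearly from a five-concentration, 48-hour dose response in 96-well plates. Abbreviation: GI50, concentration required for 50% inhibition of growth. The concentration for full growth arrest is given as TGI.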

Experimental findings from PubChem BioAssay (NCI) are described below.

What all share (experiment): growth of human tumour cells (NCI), 48 h
Assay [1] relates to IGROV1 ovarian.
The subject of assay [2] is SR leukemia.
In assay [3] the test system is HL-60(TB) leukemia.
Assay [4] concerns PC-3 prostate.
Assay [5] relates to SN12C renal.
Assay [6] has as its system MDA-MB-435.
The subject of assay [7] is NCI-H23 lung.
Assay [8] has as its system SK-MEL-2 melanoma.
Assay [9] concerns ACHN renal.
Assay [10] relates to RPMI-8226 leukemia.

With `CC1(C)CC(=O)c2c(C(F)(F)F)nn(-c3ccc(C(N)=O)c(NC4CCC(OC(=O)CN)CC4)c3)c2C1` (configuration not stated), the GI50 in assay [1] was 0.0422 µM; in assay [2], 0.0301 µM; in [3] it was 0.0398 µM; in assay [4] it was 0.0688 µM; in assay [5], 0.0692 µM; in assay [6], 0.0418 µM. Further, the GI50 in assay [7] was 0.0935 µM; in assay [8], 0.0683 µM; in [9], 0.0622 µM; in [10] it was 0.356 µM. The TGI was more than 39.2 µM in [1]; 17.6 µM in assay [2]; 13.2 µM in assay [3]; more than 100 µM in assay [4]; more than 100 µM in assay [5]; more than 47.3 µM in assay [6]. In addition, the TGI in assay [7] is more than 100 µM; in assay [8], more than 100 µM; in [9], more than 100 µM; in assay [10], more than 60.1 µM.
On to `COc1ccc(-c2nc3sc4c(c3c(=O)[nH]2)CCCCCC4)cc1`, for which the GI50 in [1] is 6.38 µM; in assay [2], 0.717 µM; in assay [3] it was 0.874 µM; in assay [4], more than 33.2 µM; in [5], more than 33.2 µM; in assay [6], 0.107 µM. The GI50 in [7] was more than 33.2 µM; in [8], 2.83 µM; in assay [9], 2.3 µM; in [10], more than 33.2 µM. In addition, the TGI in [1] was more than 33.2 µM; in [2], more than 33.2 µM; in assay [3], more than 33.2 µM; in [4], more than 33.2 µM; in assay [5] it was more than 33.2 µM; in assay [6], 0.838 µM. Further, the TGI in assay [7] was more than 33.2 µM; in assay [8], 23.5 µM; in [9], more than 33.2 µM; in [10], more than 33.2 µM.
`CCOC(=O)c1c2c(n3ccccc13)C(=O)c1ccccc1C2=O`: the TGI in assay [1], in assay [2], in [3], in [4], in [5] and in [6] was more than 100 µM each time. Besides, the TGI in [7], in assay [8], in [9] and in [10] was more than 100 µM each time.
Take `COc1ccc(OC)c(/C=C2\SC(=S)NC2=O)c1`: the GI50 is 31.2 µM in assay [1]; 37.6 µM in assay [2]; 58 µM in assay [3]; 35 µM in assay [4]; 24.8 µM in [5]; 39 µM in assay [6]. Besides, the GI50 in assay [7] was 23.1 µM; in assay [8], 80.6 µM; in [9], 26.7 µM; in assay [10], 36.7 µM. The TGI in [1] was more than 100 µM; in assay [2] it was more than 100 µM; in [3] it was more than 100 µM; in assay [4] it was more than 100 µM; in assay [5], 77.4 µM; in [6] it was more than 100 µM. Also, the TGI in assay [7] is 68.6 µM; in assay [8], more than 100 µM; in [9], 95.1 µM; in [10] it was more than 100 µM.
With `Cc1ccc(-c2cn3ccnc3c(-c3ccc(Cl)cc3)n2)cc1`, the GI50 in [1] was 1.55 µM; in [2], 0.0548 µM; in assay [3], 0.0856 µM; in assay [4] it was 0.356 µM; in assay [5], 0.532 µM; in assay [6] it was less than 0.0126 µM. The GI50 in assay [7] is 0.433 µM; in assay [8], 9.27 µM; in assay [10] it was 0.207 µM. Besides, the TGI in assay [1] is more than 83 µM; in assay [3], more than 100 µM; in assay [4], more than 100 µM; in assay [5], 62.5 µM; in [6], 0.185 µM; in assay [7], 27.6 µM. Further, the TGI in assay [8] is more than 100 µM; in assay [9], 22.3 µM; in assay [10] it was more than 39.5 µM.
As for `CC(CCC(=O)O)[C@H]1CCC2[C@@H]3CC[C@@H]4CC(O)CC[C@]4(C)C3CC[C@@]21C` (some centres not stated), the GI50 was 40.7 µM in assay [1]; 23.4 µM in assay [2]; 52.3 µM in assay [3]; 26.2 µM in assay [4]; more than 100 µM in [5]; 37.5 µM in assay [6]. The GI50 in assay [7] was 15.6 µM; in assay [8], 28.5 µM; in assay [9] it was 29.3 µM; in assay [10] it was 23.6 µM. Besides, the TGI was more than 100 µM in [1]; 85.4 µM in [2]; more than 100 µM in assay [3]; 72.3 µM in assay [4]; more than 100 µM in assay [5]; more than 100 µM in assay [6]. The TGI in assay [7] was 37.9 µM; in assay [8], 87.1 µM; in assay [9], more than 100 µM; in assay [10], 57.1 µM.
With `CCCC(C)c1cc(Cc2cc(Cl)cc(Cl)c2O)c(O)c(Cc2cc(Cl)cc(Cl)c2O)c1` (configuration not stated), the GI50 in assay [1] was 2.73 µM; in assay [2], 0.249 µM; in assay [3], 1.1 µM; in assay [4], 0.43 µM; in [5], 0.415 µM; in [6], 2.31 µM. In addition, the GI50 in assay [7] is 0.789 µM; in assay [8] it was 1.76 µM; in [9], 1.99 µM; in [10], 0.363 µM. Further, the TGI in assay [1] was found to be 14.5 µM; in assay [2] it was 11 µM; in assay [3], 9.44 µM; in assay [4], 4.52 µM; in assay [5] it was 10.4 µM; in assay [6] it was 10.3 µM. The TGI is 9.64 µM in assay [7], 4.77 µM in assay [8], 10.9 µM in assay [9] and 2.5 µM in assay [10].
Turning to `COC(=O)[C@@]1(C)CC[C@]2(C)CC[C@]3(C)C4=CC=C5C(=CC(=O)C(O)=C5C)[C@]4(C)[C@@H](O)C[C@@]3(C)[C@@H]2C1`, the GI50 in [1] is 6.73 µM; in assay [2], 2.69 µM; in assay [3], 9.68 µM; in assay [4], 8.7 µM; in assay [5], 9.65 µM; in [6], 10.6 µM. Besides, the GI50 in [7] is 13.5 µM; in assay [8], 11.2 µM; in assay [9], 3.8 µM; in assay [10] it was 5.17 µM. For the same compound, the TGI in [1] amounted to 19.1 µM; in assay [2], 19 µM; in [3], 28.9 µM; in assay [4], 19 µM; in assay [5] it was 20.7 µM; in assay [6] it was 21.5 µM. For the same compound, the TGI turned out to be 28.4 µM in assay [7], 23.2 µM in assay [8], 13.4 µM in [9] and 27.7 µM in assay [10].
In the case of `O=C1c2cccnc2C(=O)c2nc3cc(N4CCN(C5CC5)CC4)ccc3nc21`, the GI50 in assay [1] is 0.808 µM; in assay [2], 0.322 µM; in assay [3], 2.37 µM; in assay [4], 1.97 µM; in [5], 0.519 µM; in [6], 0.169 µM. Moreover, the GI50 in [7] is 0.229 µM; in [8] it was 1.61 µM; in assay [9], 0.6 µM; in [10], 2.4 µM. Moreover, the TGI in [1] was 3.01 µM; in assay [2], more than 20.1 µM; in [3], 7.29 µM; in [4] it was 23.2 µM; in [5] it was 1.88 µM; in assay [6] it was 0.328 µM. The TGI in assay [7] was found to be 0.85 µM; in assay [8] it was 4.22 µM; in [9] it was 4.34 µM; in assay [10], 8.63 µM.
`OC(c1cc(-c2ccccc2)nc2ccc(Cl)cc12)C1CCCCN1` (configuration not stated): the GI50 in assay [1] is 1.9 µM; in assay [2], 1.88 µM; in [3], 2.26 µM; in assay [4], 2.21 µM; in assay [5], 3.14 µM; in assay [6] it was 1.73 µM. Further, the GI50 in assay [7] was 1.79 µM; in assay [8], 2.45 µM; in assay [9], 1.64 µM; in assay [10] it was 2.25 µM. For the same compound, the TGI in [1] turned out to be 4.19 µM; in assay [2] it was 5.44 µM; in assay [3], 4.82 µM; in assay [4] it was 4.79 µM; in assay [5] it was 10.6 µM; in [6], 3.29 µM. The TGI in assay [7] came to 3.42 µM; in assay [8], 5.02 µM; in assay [9] it was 3.21 µM; in assay [10] it was 5.49 µM.
`COc1ccc(/C(C#N)=C/c2ccccc2OC)cc1`: the GI50 in [1] is 8.82 µM; in assay [2], 2.95 µM; in [3], 5.25 µM; in assay [5] it was 21.1 µM; in assay [6], 1.95 µM; in assay [7], 18.8 µM. Besides, the GI50 in [8] is 4.68 µM; in assay [9] it was 32.1 µM; in [10] it was 9.02 µM. Besides, the TGI is more than 100 µM in assay [1]; 15.1 µM in [2]; more than 100 µM in [3]; more than 100 µM in [4]; more than 100 µM in assay [5]; 5.72 µM in assay [6]. The TGI in [7] is more than 100 µM; in assay [8], 32.9 µM; in assay [9], more than 100 µM; in assay [10] it was 46.2 µM.
As for `CC[C@@H](C(=O)O)C1CC[C@H](C)C([C@@H](C)[C@H](O)[C@H](C)C(=O)[C@H](CC)C2O[C@]3(C=C[C@@H](O)[C@]4(CC[C@@](C)(C5CC[C@](O)(CC)[C@H](C)O5)O4)O3)[C@H](C)C[C@@H]2C)O1` (some centres not stated), the GI50 is 2.28 µM in [1]; 0.0411 µM in [2]; 0.0406 µM in [3]; 0.0657 µM in assay [4]; 0.128 µM in assay [5]; 1.04 µM in assay [6]. Besides, the GI50 was 0.186 µM in assay [7], 0.981 µM in assay [8], 0.504 µM in assay [9] and 0.153 µM in [10]. Besides, the TGI is 64.8 µM in assay [1]; 14 µM in assay [2]; 0.347 µM in [3]; 45.8 µM in assay [4]; 28.7 µM in [5]; 2.77 µM in assay [6]. Besides, the TGI in [7] amounted to 5.76 µM; in assay [8] it was 7.53 µM; in assay [9] it was 27.5 µM; in assay [10] it was 3.48 µM.
Take `COc1cccc(-n2ncc3c(N/N=C/c4ccc(C(=O)NCCN(C)C)cc4)ncnc32)c1`: the GI50 is 1.58 µM in assay [1]; 2.29 µM in [2]; 5.58 µM in assay [3]; 2.97 µM in assay [4]; 3.01 µM in [5]; 1.93 µM in assay [6]. For the same compound, the GI50 is 3.89 µM in [7], more than 9.86 µM in assay [8], 1.08 µM in assay [9] and 6.33 µM in assay [10]. Besides, the TGI in assay [1] is 6.16 µM; in assay [2], more than 13.9 µM; in [3], 10.5 µM; in assay [4], 6.47 µM; in assay [5], 6.99 µM; in assay [6] it was 5.81 µM. Further, the TGI in assay [7] was 8.29 µM; in assay [8], more than 13.9 µM; in [9] it was 4.86 µM; in assay [10] it was 12.9 µM.
